From patent US6737383B1, “Herbicidal oxadiazolidines” (priority 1999, dated 2004)

What was measured:
[1] = system: velvetleaf; test: Test B pre/postemergence velvetleaf; type: in vivo, Abutilon theophrasti
Summary of the method: (§1)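 Test chemicals in a non-phytotoxic solvent mixture with surfactant were sprayed preemergence onto planted seeds and postemergence onto plants 2 to 18 cm tall (1- to 4-leaf stage). After twelve to sixteen days in a greenhouse, injury was visually rated against untreated controls from 0 (no effect) to 10 (complete control).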

[2] = system: surinam grass; test: Test B pre/postemergence surinam grass; type: in vivo, Brachiaria decumbens
Summary of the method: as §1

[3] = system: bedstraw; test: Test B pre/postemergence bedstraw; type: in vivo, Galium aparine
Summary of the method: as §1

[4] = system: rape; test: Test B pre/postemergence rape; type: in vivo, Brassica napus
Summary of the method: as §1

[5] = system: pigweed; test: Test B pre/postemergence pigweed; type: in vivo, Amaranthus retroflexus
Summary of the method: as §1

[6] = system: smallflower flatsedge; test: Test B flood test smallflower flatsedge; type: in vivo, Cyperus difformis
Summary of the method: (§2)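 Plants were grown to the 2-leaf stage before treatment with test chemical, then held in a greenhouse for twelve to sixteen days. Injury was visually rated against untreated controls on a 0–10 scale, where 0 is no effect and 10 is complete control.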

[7] = system: purple nutsedge; test: Test B pre/postemergence purple nutsedge; type: in vivo, Cyperus rotundus
Summary of the method: as §1

[8] = system: duck salad; test: Test B flood test duck salad; type: in vivo, Heteranthera limosa
Summary of the method: as §2

[9] = system: wheat; test: Test B pre/postemergence wheat; type: in vivo, Triticum aestivum
Summary of the method: as §1

[10] = system: cocklebur; test: Test B pre/postemergence cocklebur; type: in vivo, Xanthium strumarium
Summary of the method: as §1

[11] = system: bamyardgrass; test: Test B flood test barnyardgrass; type: in vivo, Echinochloa crus-galli
Summary of the method: as §2

[12] = system: morningglory; test: Test B pre/postemergence morningglory; type: in vivo, Ipomoea hederacea
Summary of the method: as §1

[13] = system: rice; test: Test B flood test rice; type: in vivo, Oryza sativa
Summary of the method: as §2

[14] = system: wild oat; test: Test B pre/postemergence wild oat; type: in vivo, Avena fatua
Summary of the method: as §1

[15] = system: corn; test: Test B pre/postemergence corn; type: in vivo, Zea mays
Summary of the method: as §1

[16] = system: blackgrass; test: Test B pre/postemergence blackgrass; type: in vivo, Alopecurus myosuroides
Summary of the method: as §1

[17] = Preemergence, Rate 62 g/ha, scale of 0 to 10 where 0 is no effect and 10 is complete control
[18] = Preemergence, Rate 125 g/ha, 0 is no effect, 10 is complete control
[19] = Preemergence, Rate 250 g/ha, scale 0 to 10, 0 is no effect, 10 is complete control
[20] = Preemergence, Rate 500 g/ha, scale 0 to 10 (0 no effect, 10 complete control)
[21] = Rate 250 g/ha, Postemergence, scale 0 to 10, 0 is no effect, 10 is complete control
[22] = Rate 500 g/ha, Postemergence, scale 0 to 10
[23] = Postemergence, Rate 125 g/ha, scale of 0 to 10 where 0 is no effect and 10 is complete control
[24] = Rate 62 g/ha, Postemergence, scale of 0 to 10 where 0 is no effect and 10 is complete control
[25] = Postemergence (flood test species), Rate 125 g/ha, scale of 0 to 10 where 0 is no effect and 10 is complete control
[26] = Rate 62 g/ha, Postemergence section, flood test species, scale of 0 to 10 where 0 is no effect and 10 is complete control
[27] = Rate 250 g/ha, Postemergence (flood test), scale 0 to 10, 0 is no effect, 10 is complete control
[28] = Rate 500 g/ha, listed under Postemergence (flood test species), scale 0 to 10

SMILES: Cc1nsc(C)c1-n1c(=O)on(C(=O)N(c2ccc(F)cc2F)C(C)C)c1=O [Compound 158]
- Velvetleaf plant response rating [1, 17]: 0
- Velvetleaf plant response rating (0 to 10 scale) [1, 18]: 0
- Velvetleaf plant response rating [1, 19]: 0
- Velvetleaf plant response rating [1, 20]: 0
- Plant response rating, Velvetleaf [1, 21]: 0
- Velvetleaf plant response rating [1, 22]: 0
- B. signalgrass plant response rating [2, 23]: 0
- B. signalgrass plant response rating [2, 17]: 0
- B. signalgrass plant response rating (0 to 10 scale) [2, 18]: 0
- B. signalgrass plant response rating [2, 19]: 0
- B. signalgrass plant response rating [2, 20]: 0
- B. signalgrass plant response rating [2, 24]: 0
- Plant response rating, B. signalgrass [2, 21]: 0
- B. signalgrass plant response rating ([2]; Rate 500 g/ha, Postemergence, scale 0 to 10, 0 no effect, 10 complete control): 0
- Bedstraw plant response rating [3, 23]: 0
- Bedstraw plant response rating [3, 17]: 0
- Bedstraw plant response rating (0 to 10 scale) [3, 18]: 0
- Bedstraw plant response rating [3, 19]: 0
- Bedstraw plant response rating [3, 20]: 0
- Bedstraw plant response rating [3, 24]: 0
- Plant response rating, Bedstraw [3, 21]: 0
- Rape plant response rating [4, 23]: 0
- Rape plant response rating [4, 17]: 0
- Rape plant response rating (0 to 10 scale) [4, 18]: 0
- Rape plant response rating [4, 19]: 0
- Rape plant response rating [4, 20]: 0
- Rape plant response rating [4, 24]: 0
- Plant response rating, Rape [4, 21]: 0
- Rape plant response rating [4, 22]: 0
- Redroot pigweed plant response rating [5, 23]: 2
- Redroot pigweed plant response rating [5, 17]: 0
- Redroot pigweed plant response rating (0 to 10 scale) [5, 18]: 0
- Redroot pigweed plant response rating [5, 19]: 0
- Redroot pigweed plant response rating [5, 20]: 2
- Redroot pigweed plant response rating [5, 24]: 0
- Plant response rating, Redroot pigweed [5, 21]: 2
- Redroot pigweed plant response rating [5, 22]: 4
- S. Flatsedge plant response rating [6, 25]: 0
- S. Flatsedge plant response rating [6, 26]: 0
- Plant response rating, S. Flatsedge [6, 27]: 0
- S. Flatsedge plant response rating [6, 28]: 0
- Nutsedge plant response rating [7, 23]: 0
- Nutsedge plant response rating [7, 17]: 0
- Nutsedge plant response rating (0 to 10 scale) [7, 18]: 0
- Nutsedge plant response rating [7, 19]: 0
- Nutsedge plant response rating [7, 20]: 0
- Nutsedge plant response rating [7, 24]: 0
- Plant response rating, Nutsedge [7, 21]: 0
- Nutsedge plant response rating [7, 22]: 0
- Ducksalad plant response rating [8, 25]: 0
- Ducksalad plant response rating [8, 26]: 0
- Plant response rating, Ducksalad [8, 27]: 0
- Ducksalad plant response rating [8, 28]: 0
- Wheat plant response rating [9, 17]: 0
- Wheat plant response rating (0 to 10 scale) [9, 18]: 0
- Wheat plant response rating [9, 19]: 0
- Wheat plant response rating [9, 20]: 0
- Plant response rating, Wheat [9, 21]: 0
- Wheat plant response rating [9, 22]: 0
- Cocklebur plant response rating [10, 23]: 0
- Cocklebur plant response rating [10, 17]: 0
- Cocklebur plant response rating (0 to 10 scale) [10, 18]: 0
- Cocklebur plant response rating [10, 19]: 0
- Cocklebur plant response rating [10, 20]: 0
- Cocklebur plant response rating [10, 24]: 0
- Plant response rating, Cocklebur [10, 21]: 0
- Cocklebur plant response rating [10, 22]: 0
- Barnyardgrass plant response rating [11, 25]: 0
- Barnyardgrass plant response rating [11, 26]: 0
- Plant response rating, Barnyardgrass [11, 27]: 0
- Barnyardgrass plant response rating [11, 28]: 0
- Morningglory plant response rating [12, 23]: 2
- Morningglory plant response rating [12, 17]: 0
- Morningglory plant response rating (0 to 10 scale) [12, 18]: 0
- Morningglory plant response rating [12, 19]: 1
- Morningglory plant response rating [12, 20]: 2
- Morningglory plant response rating [12, 24]: 0
- Plant response rating, Morningglory [12, 21]: 2
- Morningglory plant response rating [12, 22]: 2
- Rice plant response rating [13, 25]: 0
- Rice plant response rating [13, 26]: 0
- Plant response rating, Rice [13, 27]: 0
- Rice plant response rating [13, 28]: 0
- Wild oats plant response rating [14, 17]: 0
- Wild oats plant response rating (0 to 10 scale) [14, 18]: 0
- Wild oats plant response rating [14, 19]: 0
- Wild oats plant response rating [14, 20]: 2
- Plant response rating, Wild oats [14, 21]: 0
- Wild oats plant response rating [14, 22]: 0
- Corn plant response rating [15, 23]: 0
- Corn plant response rating [15, 17]: 0
- Corn plant response rating (0 to 10 scale) [15, 18]: 0
- Corn plant response rating [15, 19]: 2
- Corn plant response rating [15, 20]: 2
- Corn plant response rating [15, 24]: 0
- Plant response rating, Corn [15, 21]: 0
- Corn plant response rating [15, 22]: 0
- Blackgrass plant response rating [16, 23]: 1
- Blackgrass plant response rating [16, 17]: 0
- Blackgrass plant response rating (0 to 10 scale) [16, 18]: 0
- Blackgrass plant response rating [16, 20]: 3
- Blackgrass plant response rating [16, 24]: 1
- Plant response rating, Blackgrass [16, 21]: 2
- Blackgrass plant response rating [16, 22]: 5
